Biological target: T1, S. aureus NAL (Staphylococcus aureus, UniProt Q2G160)
T1 construct: gene nanA; crystal structure
Test: X-ray crystal structure of the complex
Type: binding
Conditions: covalent; Z-configured enamine observed in the active site

T1 sequence (Q2G160 whole entry): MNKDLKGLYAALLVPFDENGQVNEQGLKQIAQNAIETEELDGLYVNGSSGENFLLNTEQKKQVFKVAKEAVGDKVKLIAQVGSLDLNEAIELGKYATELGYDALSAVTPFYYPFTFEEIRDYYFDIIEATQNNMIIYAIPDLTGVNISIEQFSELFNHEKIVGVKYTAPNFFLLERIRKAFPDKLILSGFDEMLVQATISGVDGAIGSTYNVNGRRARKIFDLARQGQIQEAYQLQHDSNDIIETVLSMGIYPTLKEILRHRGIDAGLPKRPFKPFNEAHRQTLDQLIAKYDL

O=C(O)C(=O)CF [fluoropyruvate]
X-ray crystal structure of the complex: the crystal structure of S. aureus NAL was determined in complex with fluoropyruvate

Reference: PMC4717870, “Evaluation of fluoropyruvate as nucleophile in reactions catalysed by N-acetyl neuraminic acid lyase variants: scope, limitations and stereoselectivity” (Organic & Biomolecular Chemistry, 2015)
